Source: the supplement of paper PMC10307832

Columns and labels:
Assay in all cases: relative viability (nuclei count vs DMSO), 5 days (fraction); higher = more cells survive
FH535 + OSI-027 = compound: CC1=C(C=CC(=C1)[N+](=O)[O-])NS(=O)(=O)C2=C(C=CC(=C2)Cl)Cl [FH535] + COc1cccc2cc(-c3nc([C@H]4CC[C@H](C(=O)O)CC4)n4ncnc(N)c34)[nH]c12 [OSI-027] (partner 0.5 µM)
Procedure, shortened: (§1)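 For relative viability, nuclei counts in treated wells were divided by those in vehicle wells. Lung cancer cell lines had been pin-tool dosed in 1536-well plates the day after seeding and cultured for 5 days, then fixed and stained in one step (final 0.05% Triton X-100, 1% formaldehyde, 1 ug/ml Hoechst) and imaged at 4×. Doses were one drug alone or a fixed anchor-drug dose plus five library-drug doses (not always all listed) in √10 steps, and values are duplicate-plate medians.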

FH535 + Pictilisib = compound: CC1=C(C=CC(=C1)[N+](=O)[O-])NS(=O)(=O)C2=C(C=CC(=C2)Cl)Cl [FH535] + CS(=O)(=O)N1CCN(Cc2cc3nc(-c4cccc5[nH]ncc45)nc(N4CCOCC4)c3s2)CC1 [Pictilisib] (partner 1 µM)
Procedure, shortened: as §1

FH535 + Lapatinib = compound: CC1=C(C=CC(=C1)[N+](=O)[O-])NS(=O)(=O)C2=C(C=CC(=C2)Cl)Cl [FH535] + CS(=O)(=O)CCNCc1ccc(-c2ccc3ncnc(Nc4ccc(OCc5cccc(F)c5)c(Cl)c4)c3c2)o1 [Lapatinib] (partner 2 µM)
Procedure, shortened: as §1

FH535 + Navitoclax = compound: CC1=C(C=CC(=C1)[N+](=O)[O-])NS(=O)(=O)C2=C(C=CC(=C2)Cl)Cl [FH535] + CC1(C)CCC(c2ccc(Cl)cc2)=C(CN2CCN(c3ccc(C(=O)NS(=O)(=O)c4ccc(N[C@H](CCN5CCOCC5)CSc5ccccc5)c(S(=O)(=O)C(F)(F)F)c4)cc3)CC2)C1 [Navitoclax] (partner 0.5 µM)
Procedure, shortened: as §1

FH535 + Bortezomib = compound: CC1=C(C=CC(=C1)[N+](=O)[O-])NS(=O)(=O)C2=C(C=CC(=C2)Cl)Cl [FH535] + CC(C)C[C@H](NC(=O)[C@H](Cc1ccccc1)NC(=O)c1cnccn1)B(O)O [Bortezomib] (partner 0.002 µM)
Procedure, shortened: as §1

| Cell Line | relative viability (FH535 + OSI-027; first compound 0.04 µM) | relative viability (FH535 + OSI-027; first compound 0.1265 µM) | relative viability (FH535 + OSI-027; first compound 0.4 µM) | relative viability (FH535 + OSI-027; first compound 1.265 µM) | relative viability (FH535 + Pictilisib; first compound 0.04 µM) | relative viability (FH535 + Pictilisib; first compound 0.1265 µM) | relative viability (FH535 + Pictilisib; first compound 0.4 µM) | relative viability (FH535 + Pictilisib; first compound 1.265 µM) | relative viability (FH535 + Lapatinib; first compound 0.04 µM) | relative viability (FH535 + Lapatinib; first compound 0.1265 µM) | relative viability (FH535 + Lapatinib; first compound 0.4 µM) | relative viability (FH535 + Lapatinib; first compound 1.265 µM) | relative viability (FH535 + Navitoclax; first compound 0.04 µM) | relative viability (FH535 + Navitoclax; first compound 0.1265 µM) | relative viability (FH535 + Navitoclax; first compound 0.4 µM) | relative viability (FH535 + Navitoclax; first compound 1.265 µM) | relative viability (FH535 + Bortezomib; first compound 0.04 µM) | relative viability (FH535 + Bortezomib; first compound 0.1265 µM) | relative viability (FH535 + Bortezomib; first compound 0.4 µM) | relative viability (FH535 + Bortezomib; first compound 1.265 µM) |
| --- | --- | --- | --- | --- | --- | --- | --- | --- | --- | --- | --- | --- | --- | --- | --- | --- | --- | --- | --- | --- |
| 201T | 0.728 | 0.484 | 0.719 | 0.538 | 0.662 | 0.726 | 0.632 | 0.627 | 1.01 | 0.897 | 0.971 | 0.978 | 1.2 | 1.19 | 1.18 | 1.16 | 1.02 | 1.05 | 1.1 | 1.03 |
| NCI-H322M | 0.543 | 0.54 | 0.577 | 0.394 | 0.471 | 0.539 | 0.436 | 0.497 | 0.504 | 0.554 | 0.555 | 0.595 | 1.13 | 1.39 | 1.19 | 1.2 | 1.21 | 1.14 | 1.07 | 1.08 |
| A549 | – | – | – | – | 0.553 | 0.511 | 0.494 | 0.398 | 0.979 | 0.947 | 0.864 | 0.578 | 1.28 | 1.16 | 1.25 | 0.936 | – | – | – | – |
| NCI-H838 | 0.388 | 0.423 | 0.388 | 0.328 | 0.462 | 0.427 | 0.379 | 0.387 | 0.971 | 0.873 | 0.795 | 0.734 | 1.16 | 1.24 | 1.07 | 0.969 | 0.701 | 0.713 | 0.694 | 0.575 |
| NCI-H460 | 0.612 | 0.754 | 0.542 | 0.375 | 0.344 | 0.338 | 0.335 | 0.329 | 0.992 | 1.08 | 1 | 0.575 | 1.15 | 1.25 | 1.11 | 0.696 | 0.984 | 1.24 | 1.16 | 0.668 |
| HOP-62 | 0.77 | 0.779 | 0.678 | 0.713 | 0.505 | 0.606 | 0.64 | 0.676 | 0.886 | 0.87 | 1 | 1.01 | 0.997 | 1.08 | 0.916 | 0.779 | 0.579 | 0.949 | 0.768 | 0.682 |
| SK-LU-1 | 0.359 | 0.347 | 0.324 | 0.235 | 0.503 | 0.568 | 0.487 | 0.4 | 0.759 | 0.778 | 0.609 | 0.362 | 0.89 | 1.01 | 0.688 | 0.622 | 0.85 | 1.19 | 1.04 | 0.926 |
| HCC-44 | 0.494 | 0.458 | 0.407 | 0.321 | 0.67 | 0.556 | 0.564 | 0.538 | 1.06 | 1.03 | 0.977 | 0.773 | 1.06 | 1.04 | 0.911 | 0.74 | 0.952 | 0.811 | 0.856 | 0.652 |
| LCLC-103H | 0.448 | 0.383 | 0.341 | 0.42 | 0.598 | 0.608 | 0.561 | 0.535 | – | – | – | – | – | – | – | – | 0.948 | 1.01 | 0.939 | 1.01 |
| ChaGo-K-1 | 0.479 | 0.596 | 0.507 | 0.432 | 0.55 | 1.07 | 0.658 | 0.436 | – | – | – | – | 0.96 | 1.35 | 1.04 | 0.636 | 0.915 | 1.24 | 0.95 | 0.589 |
| NCI-H1703 | – | – | – | – | 0.195 | 0.213 | 0.257 | 0.219 | 1.12 | 1.12 | 1.11 | 0.662 | 1.28 | 1.18 | 1.21 | 0.88 | 0.413 | 0.288 | 0.425 | 0.317 |
| LK-2 | 0.181 | 0.208 | 0.2 | 0.155 | 0.546 | 0.573 | 0.58 | 0.489 | 0.982 | 0.854 | 0.91 | 0.775 | 0.788 | 0.855 | 1 | 1.06 | – | – | – | – |
| NCI-H661 | 0.688 | 0.704 | 0.67 | 0.46 | 0.473 | 0.381 | 0.392 | 0.536 | 0.452 | 0.456 | 0.461 | 0.344 | – | – | – | – | 0.735 | 0.839 | 0.767 | 0.532 |
| NCI-H1793 | 0.295 | 0.225 | 0.306 | 0.244 | 0.344 | 0.401 | 0.313 | 0.301 | 0.525 | 0.575 | 0.641 | 0.696 | 0.49 | 0.573 | 0.469 | 0.325 | – | – | – | – |
| NCI-H1395 | 0.581 | 0.613 | 0.61 | 0.476 | 0.583 | 0.645 | 0.64 | 0.541 | 0.768 | 0.968 | 0.964 | 0.555 | 1 | 1.23 | 1.06 | 0.895 | – | – | – | – |
| NCI-H1944 | 0.35 | 0.449 | 0.364 | 0.365 | – | 0.37 | 0.34 | 0.344 | – | 0.777 | 0.668 | 0.754 | – | 1.01 | 0.975 | 0.924 | – | – | – | – |
| NCI-H1563 | 0.736 | 0.701 | 0.801 | 0.678 | 0.631 | 0.657 | 0.627 | 0.637 | 0.737 | 0.959 | 0.898 | 0.864 | – | – | – | – | 0.835 | 1.04 | 0.816 | 0.719 |
| IA-LM | – | – | – | – | 0.328 | 0.396 | 0.389 | 0.303 | 0.796 | 0.778 | 0.66 | 0.588 | 0.917 | 0.621 | 0.593 | 0.496 | 0.89 | 0.799 | 0.747 | 0.47 |
